Data reported in patent US20240228504A1, “SUBSTITUTED TRICYCLIC AMIDES, ANALOGUES THEREOF, AND METHODS USING SAME” (Arbutus Biopharma Corporation, priority 2020, published 2024).
Where two headings read alike, the source gives them in different places.

Tested on: HBV rcDNA in HepDE19 cells
Test: HepDE19 assay with bDNA quantitation of HBV rcDNA
Format: cell-based, hepatitis B virus
Conditions: inhibition of rcDNA formation, bDNA quantitation, read-out: DE-19bDNA EC50
[1] = Hepatitis B virus, HepDE19, HepDE19 assay

SMILES	EC50 [1] [nM]	EC50 (HepDE19 assay) [nM]
O=C(N[C@@H]1COCc2[nH]c(=O)c3cc(F)c(F)cc3c21)c1ccc(C(F)(F)F)c(F)c1 [Compound 158, (S)-N-(8,9-Difluoro-6-oxo-1,4,5,6-tetrahydro-2H-pyrano[3,4-c]isoquinolin-1-yl)-3-fluoro-4-(trifluoromethyl)benzamide]	580	
CN(C(=O)c1cc2ccc(F)cn2c1)C1CNCc2[nH]c(=O)c3cc(F)c(F)cc3c21 (single isomer, unassigned) [Compound 223, N-(8,9-Difluoro-6-oxo-1,2,3,4,5,6-hexahydrobenzo[c][1,7]naphthyridin-1-yl)-6-fluoro-N-methylindolizine-2-carboxamide]		30
CN(C(=O)c1ccc2cccn2c1)[C@@H]1COCc2[nH]c(=O)c3cc(F)c(F)cc3c21 [Compound 227, (S)-N-(8,9-Difluoro-6-oxo-1,4,5,6-tetrahydro-2H-pyrano[3,4-c]isoquinolin-1-yl)-N-methylindolizine-6-carboxamide]	20	
CN(C(=O)c1cc2sc(F)cc2[nH]1)C1CNCc2[nH]c(=O)c3cc(F)c(F)cc3c21 (single isomer, unassigned) [Compound 499, N-(8,9-difluoro-6-oxo-1,2,3,4,5,6-hexahydrobenzo[c][1,7]naphthyridin-1-y1)-2-fluoro-N-methyl-4H-thieno[3,2-b]pyrrole-5-carboxamide]		20000
CN(C(=O)c1cnc(C(F)(F)F)c(F)c1)C1COCc2[nH]c(=O)c3cc(F)ccc3c21 (single isomer, unassigned) [Compound 414, 5-Fluoro-N-(8-fluoro-6-oxo-1,4,5,6-tetrahydro-2H-pyrano[3,4-c]isoquinolin-1-yl)-N-methyl-6-(trifluoromethyl)nicotinamide]		170
CN(C(=O)c1cc2ccccc2[nH]1)[C@@H]1CCC(O)c2[nH]c(=O)c3cc(F)c(F)cc3c21 (single isomer, unassigned) [Compound 505]		50
CN(C(=O)c1cc2cc(F)c(C(F)F)cc2[nH]1)C1COCc2[nH]c(=O)c3cc(F)ccc3c21 (single isomer, unassigned) [Compound 217, 6-(Difluoromethyl)-5-fluoro-N-(8-fluoro-6-oxo-1,4,5,6-tetrahydro-2H-pyrano[3,4-c]isoquinolin-1-yl)-N-methyl-1H-indole-2-carboxamide]		880
CN(C(=O)c1cc2c(F)cccn2c1)C1CSCc2[nH]c(=O)c3cc(F)c(F)cc3c21 (single isomer, unassigned) [Compound 104, N-(8,9-Difluoro-6-oxo-1,4,5,6-tetrahydro-2H-thiopyrano[3,4-c]isoquinolin-1-yl)-8-fluoro-N-methylindolizine-2-carboxamide]		10
CN(C(=O)c1cc2ccccc2[nH]1)C1CNCc2[nH]c(=O)c3cc(F)c(F)cc3c21 (single isomer, unassigned) [Compound 55, N-(8,9-Difluoro-6-oxo-1,2,3,4,5,6-hexahydrobenzo[c][1,7]naphthyridin-1-yl)-N-methyl-1H-indole-2-carboxamide]		10
CN(C(=O)c1ccc2ccccn12)[C@@H]1COCc2[nH]c(=O)c3cc(F)c(F)cc3c21 [Compound 248, (S)-N-(8,9-Difluoro-6-oxo-1,4,5,6-tetrahydro-2H-pyrano[3,4-c]isoquinolin-1-yl)-N-methylindolizine-3-carboxamide]	5380	
CN(C(=O)C1CN(c2cscc2Br)C1)[C@@H]1COCc2[nH]c(=O)c3cc(F)c(F)cc3c21 [Compound 284, (S)-1-(4-Bromothiophen-3-yl)-N-(8,9-difluoro-6-oxo-1,4,5,6-tetrahydro-2H-pyrano[3,4-c]isoquinolin-1-yl)-N-methylazetidine-3-carboxamide]	50	
CN(C(=O)c1cc2cc(F)ccc2[nH]1)C1COCc2[nH]c(=O)c3cc(F)ccc3c21 (single isomer, unassigned) [Compound 29, 5-Fluoro-N-(8-fluoro-6-oxo-1,4,5,6-tetrahydro-2H-pyrano[3,4-c]isoquinolin-1-yl)-N-methyl-1H-indole-2-carboxamide]		1500
CN(C(=O)c1nc2ccccc2s1)[C@@H]1COCc2[nH]c(=O)c3cc(F)c(F)cc3c21 [Compound 123, (S)-N-(8,9-Difluoro-6-oxo-1,4,5,6-tetrahydro-2H-pyrano[3,4-c]isoquinolin-1-yl)-N-methylbenzo[d]thiazole-2-carboxamide]	1500	
CN(C(=O)c1cc(C(F)(F)F)n[nH]1)[C@@H]1COCc2[nH]c(=O)c3cc(F)c(F)cc3c21 [Compound 125, (S)-N-(8,9-Difluoro-6-oxo-1,4,5,6-tetrahydro-2H-pyrano[3,4-c]isoquinolin-1-yl)-N-methyl-3-(trifluoromethyl)-1H-pyrazole-5-carboxamide]	150	
CN(C(=O)c1cc2nc(C(F)(F)F)ccc2[nH]1)[C@@H]1COCc2[nH]c(=O)c3cc(F)c(F)cc3c21 [Compound 219, (S)-N-(8,9-difluoro-6-oxo-1,4,5,6-tetrahydro-2H-pyrano[3,4-c]isoquinolin-1-yl)-N-methyl-5-(trifluoromethyl)-1H-pyrrolo[3,2-b]pyridine-2-carboxamide]	1440	
CN(C(=O)c1cc2c(F)cccn2c1)C1COCc2[nH]c(=O)c3cc(F)c(F)cc3c21 (single isomer, unassigned) [Compound 10, N-(8,9-Difluoro-6-oxo-1,4,5,6-tetrahydro-2H-pyrano[3,4-c]isoquinolin-1-yl)-8-fluoro-N-methylindolizine-2-carboxamide]		10
CN(C(=O)C1Nc2ccccc2C1(C)C)C1COCc2[nH]c(=O)c3cc(F)c(F)cc3c21 (stereo not drawn) [Compound 57, N-(8,9-Difluoro-6-oxo-1,4,5,6-tetrahydro-2H-pyrano[3,4-c]isoquinolin-1-yl)-N,3,3-trimethylindoline-2-carboxamide]		23000
Cc1cccc2[nH]c(C(=O)N(C)[C@@H]3CCCc4[nH]c(=O)c5cc(F)ccc5c43)cc12 [Compound 491, (R)-N-(8-fluoro-6-oxo-1,2,3,4,5,6-hexahydrophenanthridin-1-y1)-N,4-dimethyl-1H-indole-2-carboxamide]	20	
CN(C(=O)c1ccc2scnc2c1)C1COCc2[nH]c(=O)c3cc(F)ccc3c21 (single isomer, unassigned) [Compound 445, N-(8-fluoro-6-oxo-1,4,5,6-tetrahydro-2H-pyrano[3,4-c]isoquinolin-1-yl)-N-methylbenzo[d]thiazole-5-carboxamide]		700
CN(C(=O)c1cc2cc(F)ccc2[nH]1)[C@@H]1CCC(O)c2[nH]c(=O)c3cc(F)c(F)cc3c21 (single isomer, unassigned) [Compound 501]		10
CN(C(=O)c1cc2c(Cl)cccc2[nH]1)[C@@H]1COCc2[nH]c(=O)c3cc(F)c(F)cc3c21 [Compound 347, (S)-4-Chloro-N-(8,9-difluoro-6-oxo-1,4,5,6-tetrahydro-2H-pyrano[3,4-c]isoquinolin-1-yl)-N-methyl-1H-indole-2-carboxamide]	10	
CN(C(=O)c1ccc2ncsc2c1)C1COCc2[nH]c(=O)c3cc(F)ccc3c21 (single isomer, unassigned) [Compound 447, N-(8-fluoro-6-oxo-1,4,5,6-tetrahydro-2H-pyrano[3,4-c]isoquinolin-1-yl)-N-methylbenzo[d]thiazole-6-carboxamide]		940
CN(C(=O)c1cc2c(Cl)cccn2c1)C1CNCc2[nH]c(=O)c3cc(F)c(F)cc3c21 (single isomer, unassigned) [Compound 509, 8-Chloro-N-(8,9-Difluoro-6-oxo-1,2,3,4,5,6-hexahydrobenzo[c][1,7]naphthyridin-1-yl)-N-methylindolizine-2-carboxamide]		10
CN(C(=O)c1cc2c(C#N)cc(F)cc2[nH]1)C1CNCc2[nH]c(=O)c3cc(F)c(F)cc3c21 (single isomer, unassigned) [Compound 400, 4-Cyano-N-(8,9-difluoro-6-oxo-1,2,3,4,5,6-hexahydrobenzo[c][1,7]naphthyridin-1-yl)-6-fluoro-N-methyl-1H-indole-2-carboxamide]		90
CN(C(=O)c1ccc2ncccc2c1)[C@@H]1COCc2[nH]c(=O)c3cc(F)c(F)cc3c21 [Compound 67, (S)-N-(8,9-Difluoro-6-oxo-1,4,5,6-tetrahydro-2H-pyrano[3,4-c]isoquinolin-1-yl)-N-methylquinoline-6-carboxamide]	1600	
CN(C(=O)c1ccc(C(F)(F)F)nc1)[C@@H]1COCc2[nH]c(=O)c3cc(F)c(F)cc3c21 [Compound 73, (S)-N-(8,9-Difluoro-6-oxo-1,4,5,6-tetrahydro-2H-pyrano[3,4-c]isoquinolin-1-yl)-N-methyl-6-(trifluoromethyl)nicotinamide]	120	
CN(C(=O)c1ccc2c(c1)CCC2)C1CNCc2[nH]c(=O)c3cc(F)c(F)cc3c21 (single isomer, unassigned) [Compound 471, N-(8,9-difluoro-6-oxo-1,2,3,4,5,6-hexahydrobenzo[c][1,7]naphthyridin-1-yl)-N-methyl-2,3-dihydro-1H-indene-5-carboxamide]		8700
CN(C(=O)c1ccc2cccn2c1)C1CNCc2[nH]c(=O)c3cc(F)c(F)cc3c21 (single isomer, unassigned) [Compound 392, N-(8,9-difluoro-6-oxo-1,2,3,4,5,6-hexahydrobenzo[c][1,7]naphthyridin-1-yl)-N-methylindolizine-6-carboxamide]		90
CN(C(=O)c1cccc(Oc2cccc(F)c2)c1)[C@@H]1COCc2[nH]c(=O)c3cc(F)c(F)cc3c21 [Compound 322, (S)-N-(8,9-Difluoro-6-oxo-1,4,5,6-tetrahydro-2H-pyrano[3,4-c]isoquinolin-1-yl)-3-(3-fluorophenoxy)-N-methylbenzamide]	8100	
CN(C(=O)c1cc2ccc(C(F)F)cn2c1)C1CNCc2[nH]c(=O)c3cc(F)c(F)cc3c21 (single isomer, unassigned) [Compound 388, N-(8,9-Difluoro-6-oxo-1,2,3,4,5,6-hexahydrobenzo[c][1,7]naphthyridin-1-yl)-6-(difluoromethyl)-N-methylindolizine-2-carboxamide]		110
